Read-outs that look alike come from different tables or passages of the source.
Assays:
Assay type in all cases: biochemical
HePTP = biological target: T1, HePTP (Homo sapiens, UniProt P35236); assay: PTP inhibition assay (pNPP); details: […]; HePTP
T1 sequence (P35236 1-360): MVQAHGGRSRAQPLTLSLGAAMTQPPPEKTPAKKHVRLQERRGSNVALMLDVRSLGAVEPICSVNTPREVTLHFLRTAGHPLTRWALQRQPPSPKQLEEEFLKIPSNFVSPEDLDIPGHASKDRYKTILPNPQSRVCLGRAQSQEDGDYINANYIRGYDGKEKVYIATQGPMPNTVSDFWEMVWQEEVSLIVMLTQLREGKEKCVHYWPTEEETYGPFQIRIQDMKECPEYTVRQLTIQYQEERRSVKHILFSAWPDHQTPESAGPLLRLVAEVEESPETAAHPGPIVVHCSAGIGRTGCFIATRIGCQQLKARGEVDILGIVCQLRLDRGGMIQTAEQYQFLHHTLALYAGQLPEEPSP

LMWPTP = biological target: T2, LMWPTP (Homo sapiens, UniProt P24666); assay: PTP inhibition assay (pNPP)
T2 sequence (P24666 1-158): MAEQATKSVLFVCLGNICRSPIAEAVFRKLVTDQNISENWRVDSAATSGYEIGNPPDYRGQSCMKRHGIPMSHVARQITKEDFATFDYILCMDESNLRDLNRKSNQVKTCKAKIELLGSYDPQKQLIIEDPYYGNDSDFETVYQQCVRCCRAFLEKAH

LYP = biological target: T3, LYP (Homo sapiens, UniProt Q9Y2R2); assay: PTP inhibition assay (pNPP)
T3 sequence (Q9Y2R2 1-807): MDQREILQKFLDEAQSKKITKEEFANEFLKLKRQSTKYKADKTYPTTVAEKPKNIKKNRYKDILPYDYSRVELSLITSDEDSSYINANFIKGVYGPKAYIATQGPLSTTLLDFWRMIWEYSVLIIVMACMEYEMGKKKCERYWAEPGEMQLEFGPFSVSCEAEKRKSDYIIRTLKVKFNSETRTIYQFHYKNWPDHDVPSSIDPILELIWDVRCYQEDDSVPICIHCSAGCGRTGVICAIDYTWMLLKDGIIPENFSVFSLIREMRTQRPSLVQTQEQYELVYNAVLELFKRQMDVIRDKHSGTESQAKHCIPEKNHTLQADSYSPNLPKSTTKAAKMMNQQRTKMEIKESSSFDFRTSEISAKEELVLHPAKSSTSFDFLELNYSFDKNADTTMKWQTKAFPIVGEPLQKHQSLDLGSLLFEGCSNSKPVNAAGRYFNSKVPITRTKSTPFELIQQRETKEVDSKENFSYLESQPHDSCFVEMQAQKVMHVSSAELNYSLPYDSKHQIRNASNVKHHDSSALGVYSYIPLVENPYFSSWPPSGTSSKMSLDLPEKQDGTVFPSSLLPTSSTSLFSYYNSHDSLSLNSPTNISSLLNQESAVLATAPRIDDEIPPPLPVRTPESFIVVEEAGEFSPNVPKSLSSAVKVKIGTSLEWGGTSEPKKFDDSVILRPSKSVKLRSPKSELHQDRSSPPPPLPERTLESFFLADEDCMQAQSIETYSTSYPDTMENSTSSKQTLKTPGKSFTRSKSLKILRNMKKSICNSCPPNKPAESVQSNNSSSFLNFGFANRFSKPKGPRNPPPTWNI

SHP2 = biological target: T4, SHP2 (Homo sapiens, UniProt Q06124); assay: SHP2 phosphatase inhibition assay (pNPP); details: read-out: IC50 SHP2
T4 sequence (Q06124 224-528): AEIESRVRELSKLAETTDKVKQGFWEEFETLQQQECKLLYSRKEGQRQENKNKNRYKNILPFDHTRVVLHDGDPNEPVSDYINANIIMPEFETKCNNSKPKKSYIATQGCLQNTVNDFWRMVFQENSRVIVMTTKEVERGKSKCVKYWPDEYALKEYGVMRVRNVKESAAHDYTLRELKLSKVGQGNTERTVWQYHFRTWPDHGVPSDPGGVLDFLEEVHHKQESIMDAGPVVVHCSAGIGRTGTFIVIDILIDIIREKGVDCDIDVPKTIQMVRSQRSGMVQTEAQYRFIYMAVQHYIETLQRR

PTP1B = biological target: T5, PTP1B (Homo sapiens, UniProt P18031); assay: PTP inhibition assay (pNPP); details: pNPP at Km, pH 7.0, 25° C.
T5 sequence (P18031 1-435): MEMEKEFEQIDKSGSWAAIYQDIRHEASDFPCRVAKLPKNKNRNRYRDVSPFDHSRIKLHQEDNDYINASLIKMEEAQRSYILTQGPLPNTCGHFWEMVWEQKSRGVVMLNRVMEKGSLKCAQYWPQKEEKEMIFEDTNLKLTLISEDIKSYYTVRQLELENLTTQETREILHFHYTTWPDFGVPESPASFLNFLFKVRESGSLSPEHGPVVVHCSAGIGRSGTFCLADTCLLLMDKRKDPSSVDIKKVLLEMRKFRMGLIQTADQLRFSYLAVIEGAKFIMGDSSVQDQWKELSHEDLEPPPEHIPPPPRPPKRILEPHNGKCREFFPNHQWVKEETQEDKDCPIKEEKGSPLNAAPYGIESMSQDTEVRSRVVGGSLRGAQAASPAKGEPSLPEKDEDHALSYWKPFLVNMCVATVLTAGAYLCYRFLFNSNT

Laforin = biological target: T6, Laforin (Homo sapiens, UniProt O95278); assay: PTP inhibition assay (pNPP); details: for IC50: pNPP at Km, pH 7.0, 25° C., read-out: IC50 Laforin
T6 sequence (O95278 1-331): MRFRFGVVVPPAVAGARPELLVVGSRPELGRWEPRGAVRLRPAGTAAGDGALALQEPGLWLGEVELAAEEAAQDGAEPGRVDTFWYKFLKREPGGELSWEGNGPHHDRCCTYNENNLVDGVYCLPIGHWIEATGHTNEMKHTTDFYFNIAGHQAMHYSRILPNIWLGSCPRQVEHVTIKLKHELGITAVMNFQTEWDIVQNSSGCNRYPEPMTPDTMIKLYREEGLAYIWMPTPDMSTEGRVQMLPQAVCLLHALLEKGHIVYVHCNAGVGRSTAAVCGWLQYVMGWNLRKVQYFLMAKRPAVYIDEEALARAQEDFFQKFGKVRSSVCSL

CD45 = biological target: T7, CD45 (Homo sapiens, UniProt P08575); assay: PTP inhibition assay (pNPP); details: pNPP at Km, pH 7.0, 25° C.
T7 sequence (P08575 26-1306): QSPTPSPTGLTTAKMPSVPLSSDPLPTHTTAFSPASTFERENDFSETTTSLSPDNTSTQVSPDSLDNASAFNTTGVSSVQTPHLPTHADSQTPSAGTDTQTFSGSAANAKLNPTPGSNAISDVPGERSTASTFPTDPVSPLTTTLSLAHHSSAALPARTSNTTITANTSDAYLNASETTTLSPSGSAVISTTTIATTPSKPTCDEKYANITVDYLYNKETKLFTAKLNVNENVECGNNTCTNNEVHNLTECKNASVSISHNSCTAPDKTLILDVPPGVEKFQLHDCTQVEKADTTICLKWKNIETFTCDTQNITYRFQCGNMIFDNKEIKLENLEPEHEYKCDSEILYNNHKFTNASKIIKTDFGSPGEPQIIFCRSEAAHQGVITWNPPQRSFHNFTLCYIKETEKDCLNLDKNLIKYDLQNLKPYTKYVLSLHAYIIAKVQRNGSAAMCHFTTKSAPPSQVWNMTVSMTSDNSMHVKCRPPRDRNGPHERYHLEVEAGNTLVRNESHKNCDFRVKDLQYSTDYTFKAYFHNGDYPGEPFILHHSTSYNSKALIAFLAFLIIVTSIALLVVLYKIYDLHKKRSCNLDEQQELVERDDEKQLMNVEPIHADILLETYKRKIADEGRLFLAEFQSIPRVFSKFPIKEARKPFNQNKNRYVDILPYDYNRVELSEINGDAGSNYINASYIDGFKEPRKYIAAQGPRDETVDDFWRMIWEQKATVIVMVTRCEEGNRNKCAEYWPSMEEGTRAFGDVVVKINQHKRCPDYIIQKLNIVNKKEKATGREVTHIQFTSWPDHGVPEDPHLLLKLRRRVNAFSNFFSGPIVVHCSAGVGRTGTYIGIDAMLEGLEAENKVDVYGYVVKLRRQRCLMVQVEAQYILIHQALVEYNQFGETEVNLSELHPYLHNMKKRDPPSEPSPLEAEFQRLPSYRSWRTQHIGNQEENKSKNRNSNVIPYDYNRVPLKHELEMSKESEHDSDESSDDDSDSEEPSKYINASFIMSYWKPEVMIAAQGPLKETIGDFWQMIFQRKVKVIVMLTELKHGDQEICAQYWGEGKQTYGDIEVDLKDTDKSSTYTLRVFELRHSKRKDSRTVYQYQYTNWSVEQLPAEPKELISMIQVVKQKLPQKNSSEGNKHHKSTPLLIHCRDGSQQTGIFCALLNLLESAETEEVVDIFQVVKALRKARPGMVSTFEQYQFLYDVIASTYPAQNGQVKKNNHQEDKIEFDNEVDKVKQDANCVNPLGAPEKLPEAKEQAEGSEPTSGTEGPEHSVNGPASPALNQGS

Row | SMILES | IC50 (HePTP) [µM] | IC50 (LMWPTP; […], LMWPTP) [µM] | IC50 (LYP; […], LYP) [µM] | IC50 (SHP2; […], SHP2) [µM] | IC50 (PTP1B) [µM] | IC50 (LYP; pNPP at Km, pH 7.0, 25° C.) [µM] | IC50 (Laforin) [µM] | IC50 (CD45) [µM] | IC50 (SHP2; pNPP at Km, pH 7.0, 25° C.) [µM] | IC50 (LMWPTP; pNPP at Km, pH 7.0, 25° C.) [µM] | Inhibition of Laforin at 100 μM (Laforin; 100 μM)
1 | O=C(NNc1ccccc1)C(c1ccc(-c2ccccc2)cc1)S(=O)(=O)O (stereo not drawn) [Compound L319-16-N58] | 20 | 32 | 20 | 22 |  |  |  |  |  |  | 
2 | O=C(O)C(c1ccc(-c2ccccc2)cc1)S(=O)(=O)O (stereo not drawn) [Compound L319-16] | 11 | > 100 | 5.19 | 25 |  |  |  |  |  |  | 
3 | O=C(Nc1nccs1)C(c1ccccc1)S(=O)(=O)O (stereo not drawn) [Compound L319N13] |  |  |  |  | > 100 | > 100 | 8 | > 100 | > 100 |  | 
4 | O=C(Nc1nc(-c2ccccc2)cs1)C(c1ccccc1)S(=O)(=O)O (stereo not drawn) [Compound L319N14] |  |  |  |  | 160 | 15 | 6 | 70 | 31 | 20 | 
5 | O=C(Nc1nc2c(Cl)cccc2s1)C(c1ccccc1)S(=O)(=O)O (stereo not drawn) [Compound L319N15-01] |  |  |  |  | 70 | 22 | 2.2 |  | 41 | 4.6 | 
6 | Cc1cccc2sc(NC(=O)C(c3ccccc3)S(=O)(=O)O)nc12 (stereo not drawn) [Compound L319N15-02] |  |  |  |  | > 200 | 110 | 4 | > 200 | 129 | 9.6 | 
7 | COc1cccc2sc(NC(=O)C(c3ccccc3)S(=O)(=O)O)nc12 (stereo not drawn) [Compound L319N15-03] |  |  |  |  | > 200 | > 200 | 1.2 | > 200 | > 200 | 7.6 | 
8 | Cc1cc2nc(NC(=O)C(c3ccccc3)S(=O)(=O)O)sc2cc1C (stereo not drawn) [Compound L319N15-04] |  |  |  |  | > 200 | 90 | 1.1 | > 200 | 112 | 4.8 | 
9 | O=C(Nc1nc2ccc(F)cc2s1)C(c1ccccc1)S(=O)(=O)O (stereo not drawn) [Compound L319N15-05] |  |  |  |  | > 200 | 150 | 1.7 | > 200 | 173 | 4.2 | 
10 | O=C(Nc1nc2ccc(Cl)cc2s1)C(c1ccccc1)S(=O)(=O)O (stereo not drawn) [Compound L319N15-06] |  |  |  |  | 80 | 23 | 2.3 | 130 | 30 | 5.6 | 
11 | O=C(Nc1nc2ccc(O[N+](=O)[O-])cc2s1)C(c1ccccc1)S(=O)(=O)O (stereo not drawn) [Compound L319N15-07] |  |  |  |  | > 200 | > 100 | > 200 | > 200 | > 200 | 2.1 | no detectable inhibition
12 | CCOC(=O)c1ccc2nc(NC(=O)C(c3ccccc3)S(=O)(=O)O)sc2c1 (stereo not drawn) [Compound L319N15-11] |  |  |  |  |  | 28 | 1.7 | 70 | 55 | 3.03 | 

Reference: US10494332B2, “Protein tyrosine phosphatases or SHP2 inhibitors and uses thereof” (Indiana University Research and Technology Corporation, priority 2015, dated 2019)
